Data taken from US20220296583A1, “COMPOSITIONS AND METHODS FOR TREATMENT OF OVARIAN AND BREAST CANCER” (Board of Regents, The University of Texas System, priority 2021, published 2022).
“Also recorded” adds a separate entry of the source.

Assays:
[1] = target: SIK1 (Homo sapiens, UniProt P57059); assay: SIK isoform dose response; type: biochemical
[2] = tested on: SKOv3 xenograft; assay: SKOv3 subcutaneous xenograft, Compound B, carboplatin and paclitaxel; type: in vivo, mice; conditions: SKOv3 s.c., 6 weeks
Experimental: After treatment as indicated in (A) for three weeks, mice were weighed, and intraperitoneal nodules were excised and weighed. […] Mice were treated with single, double, or triple agents for 6 weeks. Tumor was measured once a week until the tumor burden in control group reached maximum allowance. The graphs indicate the mean±standard deviation. Statistical significance is indicated by *p<0.05, **p<0.01, and ***p<0.0001.
Six-week-old female athymic nu/nu mice were purchased from Envigo. Experiments were reviewed and all procedures were performed according to an animal protocol approved by the Institutional Animal Care and Use Committee of UT MD Anderson Cancer Center. […] Carboplatin was administrated i.p. once a week at a dose of 25 mg/kg. […] Carboplatin was treated at a dose of 30 mg/kg once a week for six weeks. […] At end of six weeks, the mice were sacrificed by CO2. The mice were dissected immediately after death and the tumors were collected and weighed.
OVCAR8 cells were injected intraperitoneally (ip) into nu/nu mice. Treatment started 7 days post injection. […] At the conclusion of the treatment, the mice were sacrificed, and the tumor was dissected and weighed (FIG. 23A). […] The tumor volume was measured at indicated time points (FIG. 23D).

[3] = tested on: survivin; assay: Survivin expression by western blot; type: cell-based; conditions: OC316 and OVCAR8; 48 h
Experimental: Cell lysates were collected and survivin expression was measured by western blot analysis. The experiments were performed three times individually. Densitometry values were determined by Image J shareware (NIH) and normalized to the GAPDH loading control. The values relative to the untreated group were plotted at the bottom.
Cells were incubated for 24-48 h with and without treatments and then harvested for western blot analysis. Briefly, cells were incubated in lysis buffer for 20 min on ice and centrifuged at 17,000×g for 10 min at 4° C. Protein concentration of cell lysates was determined with BCA reagent (Thermo Fisher Scientific, Houston, Tex., USA). Lysates were separated on 8-16% SDS-PAGE and transferred to polyvinylidene difluoride (PVDF) membranes. Immunoblots were probed with anti-survivin antibody (Novus; 1:2000, Centennial CO, USA) in 5% BSA overnight at 4° C. and HRP labeled secondary antibody was added for 1 h at RT. The signal was developed on X-ray films.
Many current cancer chemotherapies, including platinum-based drugs, exert their antitumor effect by triggering apoptosis in cancer cells. […] The inhibitor of apoptosis protein family (IAPs) includes an important group of proteins involved in the regulation of apoptosis. One member of this protein family, survivin, plays an important role in promoting tumor progression by deregulating apoptosis and cell division.

[4] = tested on: OVCAR8, SKOv3, OC316, MDA4772 and ES2 ovarian cancer cell lines; assay: Clonogenic survival assay, Compound B and carboplatin; type: cell-based; conditions: 12-14 days; five cell lines
Experimental: Cell viability was measured with a bioluminescence assay as described in the Examples, and IC50 values were calculated. (B) Sensitivity to carboplatin. Eight ovarian cancer cell lines were treated as above with different concentrations of carboplatin as indicated. […] The drug concentration ratio is indicated in each plot. The combination index at 50% growth inhibition was calculated using CalcuSyn software. (E) Effect of SIK2 knockout on the carboplatin dose response curve. Cells were treated with different concentrations of carboplatin as indicated. IC50 values for (A-C, E) were calculated by GraphPad Prism 8. […] Four hundred OVCAR8 or SKOv3 ovarian cancer cells were seeded in 6-well plates in culture medium for 24 h. […] The graphs indicate the mean colony formation numbers with standard deviations.
Cancer cells were seeded in 6-well plates at a density of 400 cells per well in culture medium for 24 h to permit cell adherence. […] After control colonies had grown to include at least 50 cells, cultures were fixed and stained with Coomassie blue (0.1% Coomassie brilliant blue R-250, 40% methanol, and 10% acetic acid) and counted. Colonies were counted from three independent experiments and the mean number of colonies and standard deviations calculated. Multiplicity adjusted p values for each treatment and control were determined.

[5] = tested on: HDAC4 (Ser246)/HDAC5 (Ser256)/HDAC7 (Ser155); assay: Western analysis of HDAC4/5/7 phosphorylation; type: cell-based; conditions: 4 μM, 24 hrs; nearly all the cell lines tested
Experimental: To identify the mechanism(s) by which SIK2 inhibition decreases DNA DBS repair, it was tested whether SIK2 inhibitors decrease the phosphorylation of class IIa HDACs, which control its nuclear cytoplasmic shuttling and consequently its association with DNA. […] Next, it was investigated whether SIK2 inhibitors increase nuclear localization of HDAC5. SIK2 inhibition increased nuclear localization of HDAC5 judged by increasing nuclear florescence intensity (FIG. 7B and FIG. 8A) and the nuclear fraction of HDAC5 expression (FIG. 8B). […] Therefore, it was hypothesized that SIK2 inhibition may block MEF transcription factor activity. […] Next, it was examined whether SIK2 regulation of MEF2 activity was HDAC4/5-dependent, increasing its binding to MEF2D protein. […] These observations are consistent with the hypothesis that SIK2 inhibition increases nuclear localization of HDAC4/5, blocking MEF2 transcription (FIG. 8E).
Cells were incubated with and without treatment for the intervals indicated and then cells were incubated in lysis buffer (50 mM Hepes, pH 7.0, 150 mM NaCl, 1.5 mM MgCl2, 1 mM EGTA, 10, 10% glycerol, 1% Triton X-100, 50 mM NaF, 1 mM Na3VO4 1 mM PMSF, 10 μg/mL leupeptin and10 μg/mL aprotinin) on ice for 30 min. […] The protein concentration was assessed using a bicinchoninic acid (BCA) protein assay (Thermo Scientific, 23228). […]

[6] = tested on: OVCAR8, SKOv3, and OC316 ovarian cancer cell lines; assay: γ-H2AX punctae and comet assay, Compound B and carboplatin; conditions: 24 h
Experimental: (B) Cells were treated as described in (A) for 24 h. Then cells were dislodged, immobilized in agarose gel onto glass slide, and lysed. DNA was electrophoresed in alkaline buffer and stained by Vista Green. Olive tail moment (OTL) was measured as described in the Examples. Each plot depicts the mean of OTL (the bars indicate the standard deviation).
The OxiSelect™ Comet Assay Kit (Cell Biolabs, Inc., San Diego, Calif., USA) was used to evaluate DNA damage with or without drug treatment. […] Slides were electrophoresed in alkaline buffer at 1 volt/cm for 30 min. The cells were stained with 1× Vista Green DNA Dye for 15 min at RT and then viewed with a 4× fluorescence microscope. The percentage of DNA in the tail were analyzed with Casplab_1.2.3b2 (CaspLab Comet Assay Software, CASPLab, casplab.com). At least 50 randomly selected cells were analyzed per sample.

[7] = Pre-clinical toxicology studies; type: in vivo

Sequence of SIK1 (P57059 whole entry, canonical isoform): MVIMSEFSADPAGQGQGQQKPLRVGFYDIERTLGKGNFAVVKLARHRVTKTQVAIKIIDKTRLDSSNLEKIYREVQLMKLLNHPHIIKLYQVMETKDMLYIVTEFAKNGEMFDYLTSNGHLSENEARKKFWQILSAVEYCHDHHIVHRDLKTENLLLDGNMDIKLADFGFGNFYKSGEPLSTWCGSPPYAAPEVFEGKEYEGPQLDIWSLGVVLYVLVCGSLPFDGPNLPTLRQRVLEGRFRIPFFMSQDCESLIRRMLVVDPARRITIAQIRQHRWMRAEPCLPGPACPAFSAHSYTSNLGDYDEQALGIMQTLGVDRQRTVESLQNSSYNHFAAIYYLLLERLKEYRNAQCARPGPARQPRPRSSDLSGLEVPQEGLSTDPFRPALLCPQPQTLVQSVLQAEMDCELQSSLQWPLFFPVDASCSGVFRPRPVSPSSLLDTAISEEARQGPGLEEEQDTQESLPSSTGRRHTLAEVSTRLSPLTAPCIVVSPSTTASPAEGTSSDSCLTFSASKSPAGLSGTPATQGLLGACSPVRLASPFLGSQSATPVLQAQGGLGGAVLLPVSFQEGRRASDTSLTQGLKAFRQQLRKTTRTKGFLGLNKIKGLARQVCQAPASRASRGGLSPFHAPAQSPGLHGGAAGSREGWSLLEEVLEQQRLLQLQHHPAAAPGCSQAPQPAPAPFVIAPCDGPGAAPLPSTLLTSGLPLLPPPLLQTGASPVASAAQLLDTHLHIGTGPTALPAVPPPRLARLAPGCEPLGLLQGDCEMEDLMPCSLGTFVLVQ

SMILES: COc1c(F)cc(F)cc1-c1c[nH]c2ncc(-c3cnn(C4CCN(S(C)(=O)=O)CC4)c3)cc12 [Compound B, 3-(3,5-difluoro-2-methoxyphenyl)-5-(1-(1-(methylsulfonyl)piperidin-4-yl)-1H-pyrazol-4-yl)-1H-pyrrolo[2,3-b]pyridine]
- IC50 [1]: 351 nM
- tumor growth (tumor volume) ([2]; Compound B 40 mg/kg): significantly inhibited tumor growth
- effect when added to carboplatin plus paclitaxel ([2]; p<0.01): further enhanced the combination treatment of carboplatin plus paclitaxel
- survivin expression [3]: downregulation of survivin
- clonogenic survival [4]: significantly enhanced carboplatin induced loss of clonogenic survival
- phosphorylation of HDAC4/HDAC5/HDAC7 [5]: significantly decreased
- comet tail moment induced with carboplatin [6]: further enhanced
- hematologic / hematopoietic toxicity [7]: minimal hematologic toxicity; also recorded: little effect on normal hematopoietic or organ function; also recorded: little or no hematopoietic toxicity
